# Test results from patent US20260151457A1, “Peptides and Fragments for Treating Diabetes and Associated Metabolic Diseases” (Betavive Ltd., priority 2024, published 2026).
# Where no end group is shown, it is not given here.
# Assays:
# β-MIN6 cells = test: Insulin secretion of β-MIN6 cells following glucose induction; assay type: cell-based, mouse; conditions: IGF-2 5 nM, 20 nM, 80 nM, 1 week treatment
# Excerpt: β-MIN6 cells serve as an in vitro model of mouse pancreatic islets. β-MIN6 cells were used as an in vitro model to measure the effects of treatment with IGF-2.
# STZ-treated mouse islets [1] = test: MTT viability of STZ-treated mouse islets; assay type: cell-based; conditions: increasing concentrations
# Excerpt: Yellow dye MTT is converted to a purple dye by mitochondrial reductase in viable cells. Therefore, the amount of purple dye present determined by measuring optical density of cells at 570 nm serves as a measurement of cell viability.
# STZ-treated mouse islets [2] = test: Insulin secretion from STZ-treated mouse islets; assay type: cell-based; conditions: islets treated with 2.5 mM STZ; IGF-2 50 nM and 500 nM, GLP-1 100 nM and 1000 nM; 48 hours
# Protocol: Mouse islet cells were treated with 2.5 mM STZ and subsequently treated with either IGF-2 (FA) at 50 nM and 500 nM, or with GLP-1 at 100 nM and 1000 nM.
# db/db mice = test: Peptide efficacy on type 2 diabetes (db/db mice): pancreas H&E and IHC; assay type: in vivo
# Protocol: Male db/db mice (BKS.Cg-Dock7m+/+Leprdb/J) were administered Peptide 16 and Peptide 20 via intraperitoneal injection once daily for 35 consecutive days. Peptide 16 was administered at a dose of 5.5 mg/kg, while Peptide 20 was administered at 3.9 mg/kg. The control group received saline. Throughout the treatment period, mice were monitored for body weight and behavioral changes. At the end of the study, mice were sacrificed, and blood samples were collected for C-peptide level measurement. The pancreas was harvested for pathological analysis, including hematoxylin and eosin (H&E) staining and immunohistochemistry (IHC). Results appear in FIG. 37. All pancreatic tissue sections were stained with hematoxylin and eosin (H&E). […] Results appear in FIG. 38.
# Human pancreatic islets = test: Peptides efficacy on human pancreatic islets (IHC, digital quantitative pathological analysis); assay type: cell-based
# Protocol: Human pancreatic islets, obtained from Prodo Labs, were cultured in Prodo Labs PIM(S) media and maintained at 37° C. with 5% CO2 to ensure optimal viability. The islets were treated with IGF-2 (500 nM) and Peptide-20 (1000 nM) for five days under continuous exposure. After treatment, islets were collected and fixed in 4% paraformaldehyde (PFA) to preserve cellular and structural integrity. The samples were then processed for formalin-fixed paraffin-embedded (FFPE) histology. Sectioned islets were stained using immunohistochemistry (IHC) with specific markers to assess islet integrity, β-cell function, and proliferation. Microscopic Digital Quantitative Pathological Analysis provided critical insights into the effects of IGF-2 and Peptide-20 on islet structure and function. […] These findings establish Peptide-20 as a strong candidate for novel diabetes therapies aimed at restoring islet function and reversing β-cell loss. […] Their ability to enhance β-cell survival and proliferation positions them as strong candidates for the development of novel regenerative therapies, paving the way for innovative drug development aimed at reversing diabetes and restoring endogenous insulin production.
# mice = test: Blood glucose concentration kinetics of IGF-2 vs. insulin in a glucose tolerance test; assay type: in vivo
# Protocol: IGF-2 therefore provides an effect that mimics insulin within the body, and that effect is referred to herein as an “insulinomimetic” effect. […] More specifically, when 1 unit of insulin per kg was administered, the recovery in glucose levels began after two hours. But when 800 μg/kg of IGF-2 was administered, the recovery in glucose levels began after six hours. […] In this example, administering IGF-2 can provide better results than administering insulin with respect to blood glucose levels, even when only a single dose was used. Without being bound by this theory, it is possible that the IGF-2 combines with a number of binding proteins in the blood and its active free form is then released slowly from the complex.
# [3] = Peptide-20 1000 nM for five days
substance,measurement,setting,value
"GLP-1 (HAEGTFTSDVSSYLEGQAAKEFIAWLVKGR; ends and bridges not checked; UniProt P01275 98-127, looked up) [a satiety hormone, comparator in vitro, reference compound]",Insulin secretion following glucose induction,β-MIN6 cells,does not increase insulin secretion
same,"Mouse islet viability (MTT, optical density at 570 nm)",STZ-treated mouse islets [1],did not significantly increase mouse islet viability
same,Insulin secretion,STZ-treated mouse islets [2],did not significantly increase insulin secretion
RSRGIVEECCFRICDLALLE [Peptide 20],Islets of Langerhans in the pancreas (IHC),db/db mice; Peptide 20 3.9 mg/kg i.p. once daily for 35 days,regenerating the islets of Langerhans
same,Islets of Langerhans in pancreatic tissue sections (H&E),"db/db mice; i.p. once daily for 35 days, Peptide 16 5.5 mg/kg, Peptide 20 3.9 mg/kg",regenerating the islets of Langerhans
same,"Pancreatic islet regeneration, integrity and function","Human pancreatic islets; IGF-2 500 nM, Peptide-20 1000 nM, five days",enhances human pancreatic islet regeneration and function
same,Islet area,Human pancreatic islets; [3],significant increase
same,Total insulin signal intensity,Human pancreatic islets; [3],significant increase
same,β-cell proliferation,Human pancreatic islets; [3],significant increase
insulin [reference compound],Glucose level after administration,mice; glucose tolerance test in mice,decreased
same,Time after which the recovery in glucose levels began,"mice; insulin 1 unit per kg, IGF-2 800 μg/kg, single dose",two
